# Reference: US10961236B2, “(S)-2-(1-cyclopropylethyl)-5-(4-methyl-2-((6-(2-oxopyrrolidin-1-yl)pyridin-2-yl)amino) thiazol-5-yl)-7-(methylsulfonyl)isoindolin-1-one as a phosphatidylinositol 3-kinase inhibitor” (AstraZeneca AB, priority 2016, dated 2021)
# What was measured:
# Type in all cases: biochemical
# [1] = target: recombinant human PI3Kδ (6-His(p110-p85α)) (Homo sapiens (Human), UniProt O00329); assay: Enzymatic activity assay for recombinant human PI3Kδ (ADP-Glo); conditions: 0.6 nM PI3Kδ, 20 μM ATP, 80 μM DiC8-PIP2, ADP-Glo
# Sequence of recombinant human PI3Kδ (6-His(p110-p85α)) (O00329 whole entry): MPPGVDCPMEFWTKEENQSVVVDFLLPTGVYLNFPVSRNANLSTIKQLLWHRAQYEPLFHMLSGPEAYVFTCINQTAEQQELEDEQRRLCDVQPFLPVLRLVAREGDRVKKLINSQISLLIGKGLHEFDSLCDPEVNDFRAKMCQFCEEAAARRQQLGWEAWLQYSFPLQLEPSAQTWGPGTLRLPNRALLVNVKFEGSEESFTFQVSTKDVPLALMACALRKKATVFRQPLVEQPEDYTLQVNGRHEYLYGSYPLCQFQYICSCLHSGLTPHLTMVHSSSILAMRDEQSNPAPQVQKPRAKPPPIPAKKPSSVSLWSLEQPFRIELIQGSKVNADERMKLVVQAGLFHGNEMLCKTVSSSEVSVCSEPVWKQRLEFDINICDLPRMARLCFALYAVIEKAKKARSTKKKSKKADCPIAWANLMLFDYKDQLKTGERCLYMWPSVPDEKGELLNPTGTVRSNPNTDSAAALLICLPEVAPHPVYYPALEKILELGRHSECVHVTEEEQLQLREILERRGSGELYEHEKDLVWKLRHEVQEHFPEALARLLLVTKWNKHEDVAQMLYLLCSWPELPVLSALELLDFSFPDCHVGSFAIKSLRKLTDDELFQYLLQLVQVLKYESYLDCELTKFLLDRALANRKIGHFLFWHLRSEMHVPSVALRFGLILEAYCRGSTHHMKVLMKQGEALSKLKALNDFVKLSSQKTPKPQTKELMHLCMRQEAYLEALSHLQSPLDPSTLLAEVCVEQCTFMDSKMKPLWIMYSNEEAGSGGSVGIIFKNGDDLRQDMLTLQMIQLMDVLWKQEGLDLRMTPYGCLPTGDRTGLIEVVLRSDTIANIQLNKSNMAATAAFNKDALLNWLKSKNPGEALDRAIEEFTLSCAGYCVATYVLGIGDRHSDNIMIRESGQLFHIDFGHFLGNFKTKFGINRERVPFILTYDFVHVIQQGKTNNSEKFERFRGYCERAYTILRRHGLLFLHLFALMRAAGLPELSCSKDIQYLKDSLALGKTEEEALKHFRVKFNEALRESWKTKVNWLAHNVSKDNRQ
# Sequence of recombinant human PI3Kδ (6-His(p110-p85α)) (P27986 whole entry partner): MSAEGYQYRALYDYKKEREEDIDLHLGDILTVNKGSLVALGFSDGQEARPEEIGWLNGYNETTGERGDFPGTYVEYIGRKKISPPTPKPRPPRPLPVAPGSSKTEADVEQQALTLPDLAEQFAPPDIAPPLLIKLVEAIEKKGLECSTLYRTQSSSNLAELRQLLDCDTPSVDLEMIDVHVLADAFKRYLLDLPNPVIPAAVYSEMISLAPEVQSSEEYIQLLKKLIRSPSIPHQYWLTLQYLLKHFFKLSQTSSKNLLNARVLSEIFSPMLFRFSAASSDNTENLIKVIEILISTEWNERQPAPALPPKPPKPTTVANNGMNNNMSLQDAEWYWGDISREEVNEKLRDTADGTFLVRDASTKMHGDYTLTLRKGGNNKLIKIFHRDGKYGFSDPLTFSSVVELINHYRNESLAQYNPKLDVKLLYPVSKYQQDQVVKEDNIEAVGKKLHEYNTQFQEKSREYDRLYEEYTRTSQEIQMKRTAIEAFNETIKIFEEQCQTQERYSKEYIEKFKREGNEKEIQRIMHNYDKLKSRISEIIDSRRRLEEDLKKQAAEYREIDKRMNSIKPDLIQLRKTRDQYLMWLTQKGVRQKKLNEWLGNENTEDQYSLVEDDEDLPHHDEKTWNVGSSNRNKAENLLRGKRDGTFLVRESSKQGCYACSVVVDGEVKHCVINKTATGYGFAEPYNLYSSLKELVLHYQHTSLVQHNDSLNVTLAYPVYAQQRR
# Method: (§1) Enzymatic Activity Assay for Recombinant Human PI3K α, β, δ and γ.
# (§2) The activity of recombinant human PI3Kγ ((aa144-1102)-6His) and PI3Kα, β, δ (6-His(p110-p85α)) was determined by measuring the ADP level after phosphorylation of DiC8-PIP2 using a commercially available ADP-Glo™ kit from Promega. The assay was carried out in white low volume 384 well plates in a final volume of 14 μl at R.T. The assay conditions contained the following: 50 mM Tris buffer pH 7.4, 2.1 mM DTT, 3 mM MgCl2, 0.05% CHAPS, 20 μM ATP, 80 μM DiC8-PIP2 and 1.2 nM PI3Kα, β, γ or 0.6 nM PI3Kδ. […] Routinely, inhibitors were pre-incubated with 3 μl of enzyme for 15 min prior to the addition of 2 μl substrate mixture for a further 60 min enzyme reaction. The phosphorylation was stopped with the addition of 3 μl ADP-Glo™ reagent (stop solution) followed by a 40 min incubation. Prior to detection 6 μl of ADP-Glo™ Kinase Detection Reagent was added and the plates were read in a micro plate reader using a Luminescence filter. All additions were followed by a short centrifugation step.
# [2] = target: recombinant human PI3Kγ ((aa144-1102)-6His) (Homo sapiens (Human), UniProt P48736); assay: Enzymatic activity assay for recombinant human PI3Kγ (ADP-Glo); conditions: 1.2 nM PI3Kγ, 20 μM ATP, 80 μM DiC8-PIP2, ADP-Glo
# Sequence of recombinant human PI3Kγ ((aa144-1102)-6His) (P48736 144-1102): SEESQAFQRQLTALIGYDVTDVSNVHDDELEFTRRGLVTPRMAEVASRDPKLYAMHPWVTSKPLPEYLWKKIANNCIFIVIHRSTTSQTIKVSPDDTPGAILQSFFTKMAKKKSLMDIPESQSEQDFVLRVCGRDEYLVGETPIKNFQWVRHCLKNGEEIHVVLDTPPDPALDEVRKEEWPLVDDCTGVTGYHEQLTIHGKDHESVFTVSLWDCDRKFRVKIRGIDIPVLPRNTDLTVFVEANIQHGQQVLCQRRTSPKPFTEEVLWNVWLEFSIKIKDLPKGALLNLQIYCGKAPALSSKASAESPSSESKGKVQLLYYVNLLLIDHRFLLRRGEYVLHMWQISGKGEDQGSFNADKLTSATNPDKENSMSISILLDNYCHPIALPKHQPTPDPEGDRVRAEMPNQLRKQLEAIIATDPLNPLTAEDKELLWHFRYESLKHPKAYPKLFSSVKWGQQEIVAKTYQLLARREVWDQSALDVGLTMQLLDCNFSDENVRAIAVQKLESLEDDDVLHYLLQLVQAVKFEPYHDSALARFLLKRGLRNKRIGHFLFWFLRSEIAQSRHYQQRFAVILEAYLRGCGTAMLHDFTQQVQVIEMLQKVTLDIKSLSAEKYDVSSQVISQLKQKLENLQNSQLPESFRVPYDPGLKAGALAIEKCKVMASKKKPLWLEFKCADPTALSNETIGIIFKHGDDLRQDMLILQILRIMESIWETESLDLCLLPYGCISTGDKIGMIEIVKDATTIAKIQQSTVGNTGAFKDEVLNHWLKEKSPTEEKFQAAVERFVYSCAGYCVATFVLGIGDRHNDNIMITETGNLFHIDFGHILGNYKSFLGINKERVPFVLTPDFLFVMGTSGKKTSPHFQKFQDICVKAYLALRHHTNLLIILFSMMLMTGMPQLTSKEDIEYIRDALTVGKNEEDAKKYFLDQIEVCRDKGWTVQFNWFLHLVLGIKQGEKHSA
# Method: as §1, §2
# [3] = target: recombinant human PI3Kα (6-His(p110-p85α)) (Homo sapiens (Human), UniProt P42336); assay: Enzymatic activity assay for recombinant human PI3Kα (ADP-Glo); conditions: 1.2 nM PI3Kα, 20 μM ATP, 80 μM DiC8-PIP2, ADP-Glo
# Sequence of recombinant human PI3Kα (6-His(p110-p85α)) (P42336 whole entry): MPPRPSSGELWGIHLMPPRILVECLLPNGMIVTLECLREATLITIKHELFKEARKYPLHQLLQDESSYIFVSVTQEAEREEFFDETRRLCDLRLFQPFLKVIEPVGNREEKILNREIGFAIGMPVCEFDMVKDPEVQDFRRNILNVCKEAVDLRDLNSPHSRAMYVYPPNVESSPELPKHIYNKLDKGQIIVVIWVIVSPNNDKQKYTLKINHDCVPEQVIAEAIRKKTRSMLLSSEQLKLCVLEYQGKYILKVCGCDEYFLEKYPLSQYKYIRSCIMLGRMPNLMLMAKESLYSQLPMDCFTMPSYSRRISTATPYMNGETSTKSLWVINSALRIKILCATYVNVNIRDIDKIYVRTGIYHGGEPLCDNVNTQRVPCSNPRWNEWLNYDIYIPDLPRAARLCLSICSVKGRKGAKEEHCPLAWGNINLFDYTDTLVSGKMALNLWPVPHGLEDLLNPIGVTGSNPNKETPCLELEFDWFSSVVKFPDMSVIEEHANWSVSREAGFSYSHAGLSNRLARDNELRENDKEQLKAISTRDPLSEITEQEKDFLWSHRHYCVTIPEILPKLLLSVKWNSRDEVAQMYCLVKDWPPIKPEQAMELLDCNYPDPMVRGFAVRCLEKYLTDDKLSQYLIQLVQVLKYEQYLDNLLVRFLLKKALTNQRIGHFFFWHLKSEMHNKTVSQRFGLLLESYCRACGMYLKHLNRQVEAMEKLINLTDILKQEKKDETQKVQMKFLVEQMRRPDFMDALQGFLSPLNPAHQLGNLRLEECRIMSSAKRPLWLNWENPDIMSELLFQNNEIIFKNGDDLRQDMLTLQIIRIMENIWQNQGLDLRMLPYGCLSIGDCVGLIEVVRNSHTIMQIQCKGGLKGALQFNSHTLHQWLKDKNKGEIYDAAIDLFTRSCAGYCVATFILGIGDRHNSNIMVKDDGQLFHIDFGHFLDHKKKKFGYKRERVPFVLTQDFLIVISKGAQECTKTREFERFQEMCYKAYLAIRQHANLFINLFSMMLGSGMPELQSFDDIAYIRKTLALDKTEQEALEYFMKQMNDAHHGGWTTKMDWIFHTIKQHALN
# Sequence of recombinant human PI3Kα (6-His(p110-p85α)) (P27986 whole entry partner): as the sequence (P27986 whole entry partner) above
# Method: as §1
# as §2, with “PI3Kδ. Potential inhibitors were made up in DMSO and then diluted in the assay to give a final concentration of not exceeding 1% (v/v) DMSO.” for “PI3Kδ.”
# [4] = target: recombinant human PI3Kβ (6-His(p110-p85α)) (Homo sapiens (Human), UniProt P42338); assay: Enzymatic activity assay for recombinant human PI3Kβ (ADP-Glo); conditions: 1.2 nM PI3Kβ, 20 μM ATP, 80 μM DiC8-PIP2, ADP-Glo
# Sequence of recombinant human PI3Kβ (6-His(p110-p85α)) (P42338 whole entry): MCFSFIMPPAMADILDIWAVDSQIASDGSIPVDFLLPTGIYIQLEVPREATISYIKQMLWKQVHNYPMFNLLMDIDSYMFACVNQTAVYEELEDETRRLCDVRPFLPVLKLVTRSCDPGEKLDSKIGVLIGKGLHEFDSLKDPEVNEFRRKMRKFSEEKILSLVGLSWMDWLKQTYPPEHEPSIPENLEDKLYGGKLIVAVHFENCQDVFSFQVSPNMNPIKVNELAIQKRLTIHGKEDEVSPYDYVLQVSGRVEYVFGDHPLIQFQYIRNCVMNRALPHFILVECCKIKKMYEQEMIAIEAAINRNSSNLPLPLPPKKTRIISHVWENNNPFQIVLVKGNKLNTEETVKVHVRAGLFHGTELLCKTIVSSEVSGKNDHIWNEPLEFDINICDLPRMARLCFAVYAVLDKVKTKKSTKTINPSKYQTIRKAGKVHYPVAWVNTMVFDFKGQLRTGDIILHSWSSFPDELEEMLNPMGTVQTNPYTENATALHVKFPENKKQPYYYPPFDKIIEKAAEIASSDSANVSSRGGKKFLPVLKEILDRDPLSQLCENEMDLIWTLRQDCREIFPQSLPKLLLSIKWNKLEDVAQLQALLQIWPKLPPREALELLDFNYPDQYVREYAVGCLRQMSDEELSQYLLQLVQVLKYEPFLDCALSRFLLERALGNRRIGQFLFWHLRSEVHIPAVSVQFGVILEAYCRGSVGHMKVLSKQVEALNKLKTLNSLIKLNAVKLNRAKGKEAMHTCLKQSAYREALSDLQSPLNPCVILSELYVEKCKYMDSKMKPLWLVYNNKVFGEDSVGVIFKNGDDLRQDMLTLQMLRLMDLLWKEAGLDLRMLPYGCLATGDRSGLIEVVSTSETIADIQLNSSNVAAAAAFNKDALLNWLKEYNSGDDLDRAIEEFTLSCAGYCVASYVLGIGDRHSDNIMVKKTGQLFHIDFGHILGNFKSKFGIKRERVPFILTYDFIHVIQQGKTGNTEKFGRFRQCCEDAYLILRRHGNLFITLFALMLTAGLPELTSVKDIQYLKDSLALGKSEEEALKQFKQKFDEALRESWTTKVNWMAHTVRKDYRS
# Sequence of recombinant human PI3Kβ (6-His(p110-p85α)) (P27986 whole entry partner): as the sequence (P27986 whole entry partner) above
# Method: as §1
# as §2, with “PI3Kδ. Potential inhibitors were made up in DMSO and then diluted in the assay to give a final concentration of not exceeding 1% (v/v) DMSO.” for “PI3Kδ.”
SMILES,IC50 [1] [nM],IC50 [2] [nM],IC50 [3] [nM],IC50 [4] [nM]
"Cc1nc(Nc2cccc(N3CCN(C)C3=O)n2)sc1-c1cc2c(c(S(C)(=O)=O)c1)C(=O)N([C@@H](C)C1CC1)C2 [Example 5, 2-[(1S)-1-Cyclopropylethyl]-5-(4-methyl-2-{[6-(3-methyl-2-oxoimidazolidin-1-yl)pyridin-2-yl]amino}-1,3-thiazol-5-yl)-7-(methylsulfonyl)-2,3-dihydro-1H-isoindol-1-one]",0.7,1.2,38,4710
"Cc1nc(Nc2cccc(N3CCNC3=O)n2)sc1-c1cc2c(c(S(C)(=O)=O)c1)C(=O)N([C@@H](C)C1CC1)C2 [Example 6, 2-[(1S)-1-Cyclopropylethyl]-5-(4-methyl-2-{[6-(2-oxoimidazolidin-1-yl)pyridin-2-yl]amino}-1,3-thiazol-5-yl)-7-(methylsulfonyl)-2,3-dihydro-1H-isoindol-1-one]",0.7,0.8,23,219
"CNS(=O)(=O)c1cc(-c2sc(Nc3cccc(N(C)C(=O)COC)n3)nc2C)cc2c1C(=O)N([C@@H](C)C1CC1)C2 [Example 14, N-{6-[(5-{2-[(1S)-1-Cyclopropylethyl]-7-(methylsulfamoyl)-1-oxo-2,3-dihydro-1H-isoindol-5-yl}-4-methyl-1,3-thiazol-2-yl)amino]pyridin-2-yl}-2-methoxy-N-methylacetamide]",0.4,0.9,80,724
"CCOCC(=O)N(C)c1cccc(Nc2nc(C)c(-c3cc4c(c(S(=O)(=O)NC)c3)C(=O)N([C@@H](C)C3CC3)C4)s2)n1 [Example 17, N-{6-[(5-{2-[(1S)-1-Cyclopropylethyl]-7-(methylsulfamoyl)-1-oxo-2,3-dihydro-1H-isoindol-5-yl}-4-methyl-1,3-thiazol-2-yl)amino]pyridin-2-yl}-2-ethoxy-N-methylacetamide]",0.3,1.1,48,677
"CCN(C(=O)COC)c1cccc(Nc2nc(C)c(-c3cc4c(c(S(=O)(=O)NC)c3)C(=O)N([C@@H](C)C3CC3)C4)s2)n1 [Example 18, N-{6-[(5-{2-[(1S)-1-Cyclopropylethyl]-7-(methylsulfamoyl)-1-oxo-2,3-dihydro-1H-isoindol-5-yl}-4-methyl-1,3-thiazol-2-yl)amino]pyridin-2-yl}-N-ethyl-2-methoxyacetamide]",0.3,0.8,25,231
"CNS(=O)(=O)c1cc(-c2sc(Nc3cccc(N4CCOCC4=O)n3)nc2C)cc2c1C(=O)N([C@@H](C)C1CC1)C2 [Example 20, 2-[(1S)-1-Cyclopropylethyl]-N-methyl-6-(4-methyl-2-{[6-(3-oxomorpholin-4-yl)pyridin-2-yl]amino}-1,3-thiazol-5-yl)-3-oxo-2,3-dihydro-1H-isoindole-4-sulfonamide]",0.7,0.9,37,543
"CNS(=O)(=O)c1cc(-c2sc(Nc3cccc(N4CCCOC4=O)n3)nc2C)cc2c1C(=O)N([C@@H](C)C1CC1)C2 [Example 21, 2-[(1S)-1-Cyclopropylethyl]-N-methyl-6-(4-methyl-2-{[6-(2-oxo-1,3-oxazinan-3-yl)pyridin-2-yl]amino}-1,3-thiazol-5-yl)-3-oxo-2,3-dihydro-1H-isoindole-4-sulfonamide]",0.6,1.1,19,103

# The remaining molecules from weak to strong by IC50 [1], led by results:
IC50 [1] [nM],IC50 [2] [nM],IC50 [3] [nM],IC50 [4] [nM],SMILES
2.7,1,11400,33300,"Cc1nc(Nc2cccc(N3Cc4ncccc4C3=O)n2)sc1-c1cc2c(c(S(C)(=O)=O)c1)C(=O)N([C@@H](C)C1CC1)C2 [Example 9, 6-{6-[(5-{2-[(1S)-1-Cyclopropylethyl]-7-(methylsulfonyl)-1-oxo-2,3-dihydro-1H-isoindol-5-yl}-4-methyl-1,3-thiazol-2-yl)amino]pyridin-2-yl}-6,7-dihydro-5H-pyrrolo[3,4-b]pyridin-5-one]"
1.6,0.9,300,4100,"Cc1nc(Nc2cccc(N3CCOC3=O)n2)sc1-c1cc2c(c(S(C)(=O)=O)c1)C(=O)N([C@@H](C)C(F)(F)F)C2 [Example 12, 5-(4-Methyl-2-{[6-(2-oxo-1,3-oxazolidin-3-yl)pyridin-2-yl]amino}-1,3-thiazol-5-yl)-7-(methylsulfonyl)-2-[(2S)-1,1,1-trifluoropropan-2-yl]-2,3-dihydro-1H-isoindol-1-one]"
1.3,1,38,328,"CNS(=O)(=O)c1cc(-c2sc(Nc3cccc(N4CCN(C)CC4=O)n3)nc2C)cc2c1C(=O)N([C@@H](C)C1CC1)C2 [Example 22, 2-[(1S)-1-Cyclopropylethyl]-N-methyl-6-(4-methyl-2-{[6-(4-methyl-2-oxopiperazin-1-yl)pyridin-2-yl]amino}-1,3-thiazol-5-yl)-3-oxo-2,3-dihydro-1H-isoindole-4-sulfonamide]"
1.2,1.3,23,324,"Cc1nc(Nc2cccc(N3CCCOC3=O)n2)sc1-c1cc2c(c(S(C)(=O)=O)c1)C(=O)N([C@@H](C)C1CC1)C2 [Example 8, 2-[(1S)-1-Cyclopropylethyl]-5-(4-methyl-2-{[6-(2-oxo-1,3-oxazinan-3-yl)pyridin-2-yl]amino}-1,3-thiazol-5-yl)-7-(methylsulfonyl)-2,3-dihydro-1H-isoindol-1-one]"
1.2,0.8,54,291,"Cc1nc(Nc2cccc(N3CCNC3=O)n2)sc1-c1cc2c(c(S(C)(=O)=O)c1)C(=O)N([C@@H](C)C(F)(F)F)C2 [Example 11, 5-(4-Methyl-2-{[6-(2-oxoimidazolidin-1-yl)pyridin-2-yl]amino}-1,3-thiazol-5-yl)-7-(methylsulfonyl)-2-[(2S)-1,1,1-trifluoropropan-2-yl]-2,3-dihydro-1H-isoindol-1-one]"
1.2,1,89,1160,"CNS(=O)(=O)c1cc(-c2sc(Nc3cccc(N(C)C(=O)[C@@H](C)OC)n3)nc2C)cc2c1C(=O)N([C@@H](C)C1CC1)C2 [Example 15, (2R)—N-{6-[(5-{2-[(1S)-1-Cyclopropylethyl]-7-(methylsulfamoyl)-1-oxo-2,3-dihydro-1H-isoindol-5-yl}-4-methyl-1,3-thiazol-2-yl)amino]pyridin-2-yl}-2-methoxy-N-methylpropanamide]"
1.1,0.8,68,1570,"CNS(=O)(=O)c1cc(-c2sc(Nc3cccc(N(C)C(C)=O)n3)nc2C)cc2c1C(=O)N([C@@H](C)C1CC1)C2 [Example 13, N-{6-[(5-{2-[(1S)-1-Cyclopropylethyl]-7-(methylsulfamoyl)-1-oxo-2,3-dihydro-1H-isoindol-5-yl}-4-methyl-1,3-thiazol-2-yl)amino]pyridin-2-yl}-N-methylacetamide]"
0.8,1.2,55,539,"CNS(=O)(=O)c1cc(-c2sc(Nc3cccc(N(C)C(=O)[C@H](C)OC)n3)nc2C)cc2c1C(=O)N([C@@H](C)C1CC1)C2 [Example 16, (2S)—N-{6-[(5-{2-[(1S)-1-Cyclopropylethyl]-7-(methylsulfamoyl)-1-oxo-2,3-dihydro-1H-isoindol-5-yl}-4-methyl-1,3-thiazol-2-yl)amino]pyridin-2-yl}-2-methoxy-N-methylpropanamide]"
